According to patent publication US9708312B2, “Dihydropyrimidinoisoquinolinones and pharmaceutical compositions thereof for the treatment of inflammatory disorders (GPR84 antagonists)” (GALAPAGOS NV, priority 2012, dated 2017):

What follows are molecules tested against T1, GPR84 (Homo sapiens, UniProt Q9NQS5) (assay: GPR84 [35S]GTPγS binding assay, Tris buffer (alternative)). Settings: 3,3′ di indolylmethane at EC80, membranes from stable cell line over expressing GPR84, read-out: Alternative GPR84 assay GTPγS IC50 (GPR84-2).
T1 construct: expressed in transfected cells
T1 sequence (Q9NQS5 whole entry): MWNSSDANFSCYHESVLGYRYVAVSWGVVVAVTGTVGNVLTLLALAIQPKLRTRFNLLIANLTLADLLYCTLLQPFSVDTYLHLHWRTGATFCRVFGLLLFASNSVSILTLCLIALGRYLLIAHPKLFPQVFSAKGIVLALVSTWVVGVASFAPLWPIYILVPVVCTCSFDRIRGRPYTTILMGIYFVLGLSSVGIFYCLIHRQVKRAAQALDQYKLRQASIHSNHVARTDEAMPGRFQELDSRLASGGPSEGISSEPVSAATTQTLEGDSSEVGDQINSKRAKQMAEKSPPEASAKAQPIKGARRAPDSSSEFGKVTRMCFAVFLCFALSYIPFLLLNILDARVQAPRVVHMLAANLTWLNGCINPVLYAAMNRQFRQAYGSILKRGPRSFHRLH
Format: biochemical
Experimental: 1.1. Cell Based Assay: GTp-γ S Binding Assay.
The following assay can be used for determination of GPR84 activation. The [^35S]GTPγS binding assay measures the level of G protein activation following agonist occupation of a GPCR, by determining the binding of the non-hydrolysable analog [^35S]GTPγS to Gα subunits.
Alternatively, the assay is performed in a 96 well plate where the following reagents are added. First 50 μL compound is added into the assay plate, followed by addition of 20 μL 3,3′ di indolylmethane at EC80 concentration (concentration which gives 80% of the activity of GPR84). In a last step, 30 μL of a mixture consisting of membranes-GTPγS-SpA beads is added [mixture consists of 20 μg/well membranes derived from stable cell line over expressing GPR84 (membranes are pre-incubated with 0.1 μM GDP for 15 min at 4° C.), 0.1 nM [^35S]GTPγS (Perkin Elmer, NEG030) and 0.5 mg/well PVT-WGA SpA beads (Perkin Elmer, RPNQ0001)]. All components are diluted in assay buffer containing 20 mM Tris pH 7.5; 5 mM MgCl2; 250 mM NaCl; 0.05% BSA; 75 ug/mL saponin Reactions are incubated for 90 min at room temperature followed by centrifugation at 2000 rpm during 15 min. Plates are read on a Topcount reader (Perkin Elmer) immediately after centrifugation (readout time, 1 min/well).

First: Cc1cccc(COc2ccc3c(c2)CCn2c-3cc(OCC3CCCO3)nc2=O)c1 (stereo not drawn) [compound 34, 9-(3-methyl-benzyloxy)-2-(tetrahydro-furan-2-ylmethoxy)-6,7-dihydro-pyrimido[6,1-a]isoquinolin-4-one]
Second: O=c1nc(OCC2CCCO2)cc2n1CCc1cc(OCc3cccc4ccccc34)ccc1-2 (stereo not drawn) [compound 38, 9-(naphthalen-1-ylmethoxy)-2-(tetrahydro-furan-2-ylmethoxy)-6,7-dihydro-pyrimido[6,1-a]isoquinolin-4-one]
The IC50 of the first is lower: 100 to 500 nM for the first, 500 to 1000 nM for the second.

First: COc1ccc(-c2ccc3c(c2)CCn2c-3cc(OCC3CCCO3)nc2=O)cn1 (stereo not drawn) [compound 110, 9-(6-methoxy-pyridin-3-yl)-2-(tetrahydro-furan-2-ylmethoxy)-6,7-dihydro-pyrimido[6,1-a]isoquinolin-4-one]
Second: O=c1nc(OCC2CCCO2)cc2n1CCc1cc(-c3ccc(Cl)s3)ccc1-2 (stereo not drawn) [compound 116, 9-(5-chloro-thiophen-2-yl)-2-(tetrahydro-furan-2-ylmethoxy)-6,7-dihydro-pyrimido[6,1-a]isoquinolin-4-one]
The IC50 of the first is lower: 100 to 500 nM for the first, 500 to 1000 nM for the second. The first is the more potent here.

Cc1noc(C)c1-c1ccc2c(c1)CCn1c-2cc(OCC2CCCO2)nc1=O (stereo not drawn) [compound 112, 9-(3,5-dimethyl-isoxazol-4-yl)-2-(tetrahydro-furan-2-ylmethoxy)-6,7-dihydro-pyrimido[6,1-a]isoquinolin-4-one] and O=c1nc(OCC2CCCO2)cc2n1CCc1cc(C#CC3CC3)ccc1-2 (stereo not drawn) [compound 119, 9-cyclopropylethynyl-2-(tetrahydro-furan-2-ylmethoxy)-6,7-dihydro-pyrimido[6,1-a]isoquinolin-4-one] fall in the same range of IC50: 100 to 500 nM for the first, 100 to 500 nM for the second.

First: O=c1nc(OCC2CCCO2)cc2n1CCc1cc(-c3ccc4ccccc4c3)ccc1-2 (stereo not drawn) [compound 113, 9-naphthalen-2-yl-2-(tetrahydro-furan-2-ylmethoxy)-6,7-dihydro-pyrimido[6,1-a]isoquinolin-4-one]
Second: O=c1nc(OCC2CCCO2)cc2n1CCc1cc(-c3cccc4ccccc34)ccc1-2 (stereo not drawn) [compound 114, 9-naphthalen-1-yl-2-(tetrahydro-furan-2-ylmethoxy)-6,7-dihydro-pyrimido[6,1-a]isoquinolin-4-one]
The IC50 of the first is lower: 0.01 to 100 nM for the first, 500 to 1000 nM for the second.

COc1ccc(-c2ccc3c(c2)CCn2c-3cc(OCC3COc4ncccc4O3)nc2=O)cn1 (stereo not drawn) [compound 118, 2-(2,3-Dihydro-[1,4]dioxino[2,3-b]pyridin-2-ylmethoxy)-9-(6-methoxy-pyridin-3-yl)-6,7-dihydro-pyrimido[6,1-a]isoquinolin-4-one] and O=c1nc(OCC2COc3ncccc3O2)cc2n1CCc1cc(-c3cccnc3)ccc1-2 (stereo not drawn) [compound 124, 2-(2,3-Dihydro-[1,4]dioxino[2,3-b]pyridin-2-ylmethoxy)-9-pyridin-3-yl-6,7-dihydro-pyrimido[6,1-a]isoquinolin-4-one] fall in the same range of IC50: 0.01 to 100 nM for the first, 0.01 to 100 nM for the second.

First: CC(C)(C)C#Cc1ccc2c(c1)CCn1c-2cc(OCC2CCCO2)nc1=O (stereo not drawn) [compound 120, 9-(3,3-dimethyl-but-1-ynyl)-2-(tetrahydro-furan-2-ylmethoxy)-6,7-dihydro-pyrimido[6,1-a]isoquinolin-4-one]
Second: CC(C)(C)C#Cc1ccc2c(c1)CCn1c-2cc(OCC2COc3ncccc3O2)nc1=O (stereo not drawn) [compound 144, 2-(2,3-dihydro-[1,4]dioxino[2,3-b]pyridin-2-ylmethoxy)-9-(3,3-dimethyl-but-1-ynyl)-6,7-dihydro-pyrimido[6,1-a]isoquinolin-4-one]
The IC50 of the first is higher: 500 to 1000 nM for the first, 0.01 to 100 nM for the second.

O=c1nc(OCC2COc3ncccc3O2)cc2n1CCc1cc(OCc3ccncc3)ccc1-2 (stereo not drawn) [compound 122, 2-(2,3-Dihydro-[1,4]dioxino[2,3-b]pyridin-2-ylmethoxy)-9-(pyridin-4-ylmethoxy)-6,7-dihydro-pyrimido[6,1-a]isoquinolin-4-one] and Cc1noc(COc2ccc3c(c2)CCn2c-3cc(OCC3COc4ncccc4O3)nc2=O)n1 (stereo not drawn) [compound 135, 2-(2,3-dihydro-[1,4]dioxino[2,3-b]pyridin-2-ylmethoxy)-9-(3-methyl-[1,2,4]oxadiazol-5-ylmethoxy)-6,7-dihydro-pyrimido[6,1-a]isoquinolin-4-one] fall in the same range of IC50: 0.01 to 100 nM for the first, 0.01 to 100 nM for the second.

COc1ccccc1-c1ccc2c(c1)CCn1c-2cc(OCC2COc3ncccc3O2)nc1=O (stereo not drawn) [compound 126, 2-(2,3-dihydro-[1,4]dioxino[2,3-b]pyridin-2-ylmethoxy)-9-(2-methoxy-phenyl)-6,7-dihydro-pyrimido[6,1-a]isoquinolin-4-one] and CN(C)c1ccccc1-c1ccc2c(c1)CCn1c-2cc(OCC2COc3ncccc3O2)nc1=O (stereo not drawn) [compound 130, 2-(2,3-Dihydro-[1,4]dioxino[2,3-b]pyridin-2-ylmethoxy)-9-(2-dimethylamino-phenyl)-6,7-dihydro-pyrimido[6,1-a]isoquinolin-4-one] fall in the same range of IC50: 100 to 500 nM for the first, 100 to 500 nM for the second.

O=c1nc(OCC2COc3ncccc3O2)cc2n1CCc1cc(-c3ccc4[nH]ncc4c3)ccc1-2 (stereo not drawn) [compound 127, 2-(2,3-Dihydro-[1,4]dioxino[2,3-b]pyridin-2-ylmethoxy)-9-(1H-indazol-5-yl)-6,7-dihydro-pyrimido[6,1-a]isoquinolin-4-one] and NC(=O)c1cccc(-c2ccc3c(c2)CCn2c-3cc(OCC3COc4ncccc4O3)nc2=O)c1 (stereo not drawn) [compound 129, 3-[2-(2,3-Dihydro-[1,4]dioxino[2,3-b]pyridin-2-ylmethoxy)-4-oxo-6,7-dihydro-4H-pyrimido[6,1-a]isoquinolin-9-yl]-benzamide] fall in the same range of IC50: 0.01 to 100 nM for the first, 0.01 to 100 nM for the second.

O=c1nc(OCC2COc3ncccc3O2)cc2n1CCc1cc(-c3cncnc3)ccc1-2 (stereo not drawn) [compound 128, 2-(2,3-dihydro-[1,4]dioxino[2,3-b]pyridin-2-ylmethoxy)-9-pyrimidin-5-yl-6,7-dihydro-pyrimido[6,1-a]isoquinolin-4-one] and O=c1nc(OCC2COc3ncccc3O2)cc2n1CCc1cc(C#CCO)ccc1-2 (stereo not drawn) [compound 138, 2-(2,3-dihydro-[1,4]dioxino[2,3-b]pyridin-2-ylmethoxy)-9-(3-hydroxy-prop-1-ynyl)-6,7-dihydro-pyrimido[6,1-a]isoquinolin-4-one] fall in the same range of IC50: 0.01 to 100 nM for the first, 0.01 to 100 nM for the second.

O=c1nc(OCC2COc3ncccc3O2)cc2n1CCc1cc(C#CCCO)ccc1-2 (stereo not drawn) [compound 133, 2-(2,3-dihydro-[1,4]dioxino[2,3-b]pyridin-2-ylmethoxy)-9-(4-hydroxy-but-1-ynyl)-6,7-dihydro-pyrimido[6,1-a]isoquinolin-4-one] and N#CCCC#Cc1ccc2c(c1)CCn1c-2cc(OCC2COc3ncccc3O2)nc1=O (stereo not drawn) [compound 143, 5-[2-(2,3-dihydro-[1,4]dioxino[2,3-b]pyridin-2-ylmethoxy)-4-oxo-6,7-dihydro-pyrimido[6,1-a]isoquinolin-9-yl]-pent-4-ynenitrile] fall in the same range of IC50: 0.01 to 100 nM for the first, 0.01 to 100 nM for the second.

The molecules below were run on human neutrophils (assay: Human neutrophil migration assay (embelin-induced chemotaxis)). Settings: Neutrophil; neutrophils from human buffy coats; embelin at EC80.
Format: cell-based
Experimental: 2.1. Human Neutrophil Migration Assay
The effect of agonists or antagonists for GPR84 can therefore be assayed in a neutrophil migration test. In the neutrophil migration assay, neutrophils, freshly isolated from buffy coats from human volunteers, are treated with a compound for 30 min Subsequently, the neutrophils are transferred to the upper wells of a Corning HTS transwell 96 permeable support system, of which the lower wells are filled with a embelin solution at EC80 (concentration which gives 80% of the activity of GPR84). After 1 h of incubation, migration of the neutrophils towards embelin in the lower compartment can be quantified by measuring the ATP-content of the lower wells using the ATPlite luminescence ATP detection assay system (Perkin Elmer, Cat. No.: 436110).
2.1.1 Isolation of Neutrophils from Human Buffy Coat
A human buffy coat is diluted with an equal volume of ice cold DPBS. 20 mL of the diluted buffy coat is gently mixed with 4 mL of ACD buffer (140 mM citric acid, 200 mM sodium citrate and 220 mM dextrose). Then, 12 mL of the 6% dextran/0.9% NaCl solution (15 g dextran T2000 and 2.25 g NaCl dissolved in 250 mL H2O) is added to the mixture and the samples are inverted gently up to 20 times. The total volume was transferred to a new recipient and incubated at room temperature for 1 h for complete separation of the two phases to occur. The yellowish supernatant is then transferred to a clean centrifugation tube and centrifuged for 12 min at 1300 rpm and 4° C. After centrifugation, the supernatant is discarded and the remaining cell pellet is rapidly resuspended in 12 mL of ice-cold H2O for red blood cell lysis to occur. After 20 seconds, 4 mL of ice-cold 0.6 M KCl is added. Samples are mixed carefully and centrifuged for 6 min at 1300 rpm, 4° C. The supernatant is discarded and the red blood cell lysis procedure is repeated one more time. Subsequently, the cell pellet is resuspended in 4 mL of DPBS and layered over 5 mL of Lymphoprep (Nycomed Pharma, Cat. No.: 1114545) in a 15 mL centrifuge tube. After centrifugation for 12 min at 1300 rpm, 4° C., the supernatant is removed and the cell pellet, containing the neutrophils, is resuspended in 25 mL chemotaxis buffer (RPMI 1640 medium, supplemented with 10 mM HEPES; freshly made for each experiment)
A cell suspension of 8.9×10^6 cells per milliliter is prepared. 20 μL of compound solution in chemotaxis buffer is added to 180 μL cell suspension. The mixture is incubated at 37° C. for 30 min with intermediate resuspension of the cells after 15 min Following this, 70 μL cell suspension is transferred to the upper compartment of a Corning HTS transwell 96 permeable support system with 5.0 μm pore size polycarbonate membrane (Corning, Cat. No.: 3387). The receiver well of the transwell system is then filled with 200 μL chemotaxis buffer containing compound and chemotactic agent (embelin). After incubation at 37° C. in 5% CO2 for 1 h, the upper plate of the transwell system is removed and the cell suspension in the receiver plate is transferred to a 96-well V-bottom plate. 50 μL of DPBS is added to the receiver plate to prevent remaining cells from drying out. The V-bottom plate is centrifuged for 6 min at 1500 rpm. The supernatant is removed and the cells are resuspended in 50 μL DPBS. The cells are then transferred back to the receiver plate of the transwell system. After this, 100 μL ATPlite solution (Perkin Elmer, Cat. No: 436110) was added to the cells. The plate is incubated for 10 min in the dark, while shaking. […] of cell lysate is then transferred to a white 96-well plate and luminescence is measured. The detected luminescent signal is considered as linearely related to the number of cells having migrated from the upper well to the receiver well.

COc1ccc(-c2ccc3c(c2)CCn2c-3cc(OCC3COc4ncccc4O3)nc2=O)cn1 (stereo not drawn) [compound 118, 2-(2,3-Dihydro-[1,4]dioxino[2,3-b]pyridin-2-ylmethoxy)-9-(6-methoxy-pyridin-3-yl)-6,7-dihydro-pyrimido[6,1-a]isoquinolin-4-one] and O=c1nc(OCC2COc3ncccc3O2)cc2n1CCc1cc(OCc3ccncc3)ccc1-2 (stereo not drawn) [compound 122, 2-(2,3-Dihydro-[1,4]dioxino[2,3-b]pyridin-2-ylmethoxy)-9-(pyridin-4-ylmethoxy)-6,7-dihydro-pyrimido[6,1-a]isoquinolin-4-one] fall in the same range of IC50: 0.01 to 100 nM for the first, 0.01 to 100 nM for the second.
